≈ marks a conversion by molar mass, not a printed value. Like-named read-outs stand apart in the source and are kept apart here.
What was measured:
E. coli containing KPC-2 = experiment: MIC by broth microdilution, E. coli containing KPC-2 (Ec KPC2 Iso); format: cell-based; conditions: Escherichia coli, read-out: Ec KPC2 Iso (MIC), E. coli containing KPC-2 (carbapenemase from Klebsiella pneumoniae)
Procedure: (§1) Bacterial isolates were cultivated from −70° C. frozen stocks by two consecutive overnight passages at 35° C. in ambient air on 5% blood agar (Remel, Lenexa, Kans.). Quality control and P. aeruginosa ATCC 27853) is from the American Type Culture Collection (ATCC; Rockville, Md.) and PAO1 was received from Dr. K. Poole.
Strain NB27273 (BW25113 pspB::Km^r) was obtained from the Keio transposon insertion collection. The strain has the pspB gene replaced by a kanamycin resistance marker (BW25113 pspB::Km^r). This strain was cured of the transposon in pspB via FLP recombinase using published methodology. The resulting strain, BW25113 pspB, was used as a host for multicopy vectors expressing key β-lactamases. Multicopy plasmids directing constitutive expression of β-lactamases were established as follows: Synthetic, codon optimized genes encoding E. coli KPC2 and SHV12 β-lactamases were made by DNA2.0 (Palo Alto, Calif.). Each of the synthetic fragments were designed to contain NotI and NcoI restriction sites at their termini, allowing ligation into a NotI/NcoI digested pET28a(+) derivative for protein expression. […] The codon optimized nucleotide sequences and relevant primer recognition information is shown below:
The PCR products were then digested with XhoI and EcoRI and ligated into similarly digested plasmid pAH63-pstS(BlaP). Plasmid pAH63-pstS(BlaP) is a derivative of plasmid pAH63 (J Bacteriol: 183(21): 6384-6393) made by cloning the TEM-1 (bla) promoter and signal peptide encoding region from plasmid pBAD (J Bacteriol. 1995 July 177(14):4121-30) into plasmid pAH63. This fragment was PCR amplified from pBAD using primer pair E192 (ttca[…]) (SEQ ID NO:13) and E194 ([…]) (SEQ ID NO:14), digested with PstI and BamHI and inserted into similarly digested plasmid pAH63. Therefore, expression of β-lactamases from pAH63-pstS(BlaP) based constructs is constitutive and the signal sequence is provided to direct these proteins to the periplasm. Plasmid pAH63 based vectors are used for insertion into the genome in single copy, however, to provide higher expression levels to allow more sensitive detection of the susceptibility of compounds to the β-lactamases, the expression inserts contained in these vectors were moved to the replicative multicopy vector pBAD-Kan (J Bacteriol. 1995 July 177(14):4121-30). To accomplish this, the inserts encompassing the β-lactamase genes, with the associated TEM promoter and signal sequences, were PCR amplified from their corresponding vectors using primer E269 (ccg[…]) (SEQ ID NO:15) and E202 (aatc[…]) (SEQ ID NO:16) for the KPC2 construct and E204 (aatc[…]) (SEQ ID NO:17) for the SHV12 construct. These fragments were then digested with XbaI and EcoRI, and each was inserted into pBAD18-kan that had been digested with the same enzymes to generate a pair of multicopy vectors expressing KPC2 and SHV12 respectively. These vectors were transformed into BW25113 pspB to generate strains NB27273-CDY0033 (expressing KPC2) and NB27273-CDY0030 (expressing SHV12). The pBAD18-kan vector also contains the TEM promoter region and signal sequence, (but lacks any intact β-lactamase genes) and was transformed into BW25113 pspB using standard protocols to generate the control strain NB27273-CDY0026. Expression of the β-lactamases was confirmed by verifying decreased susceptibility to example test antibiotics that are known substrates of KPC2 or SHV12. Susceptibility Testing
Minimal Inhibitory Concentrations (MICs) were determined by the broth microdilution method in accordance with Clinical and Laboratories Institute (CLSI) guidelines. In brief, fresh overnight bacterial cultures were suspended in sterile saline, and adjusted to a 0.5 McFarland turbidity standard. Bacterial suspensions were then diluted in cation adjusted Mueller-Hinton Broth (MHB II; BBL) to yield a final inoculum of approximately 5×10^5 colony-forming units (CFU)/mL. […]

E. coli strain 25922 = experiment: MIC by broth microdilution, E. coli strain 25922; format: cell-based
Procedure: as §1
Minimal Inhibitory Concentrations (MICs) were determined by the broth microdilution method in accordance with Clinical and Laboratories Institute (CLSI) guidelines. In brief, fresh overnight bacterial cultures were suspended in sterile saline, and adjusted to a 0.5 McFarland turbidity standard. Bacterial suspensions were then diluted in cation adjusted Mueller-Hinton Broth (MHB II; BBL) to yield a final inoculum of approximately 5×10^5 colony-forming units (CFU)/mL. A master plate of antibiotics was prepared at a concentration equivalent to hundred-fold the highest desired final concentration in 100% dimethyl sulfoxide (DMSO). The master antibiotic plate was then diluted by serial twofold dilution with a multichannel pipette. The resulting dilution series of compounds were diluted 1:10 with sterile water leading to a 10% DMSO final concentration. A volume of 10 μL of the drug dilution series was transferred to 96-well assay plates. Assay plates were inoculated with 90 μL of bacterial suspensions and incubated at 35-37° C. for 20 hrs. The assay plates were read using a microtiter plate reader (Molecular Devices) at 600 nm as well as by visual observation with a reading mirror. The lowest concentration of the compound that prevented visible growth was recorded as the MIC. Performance of the assay was monitored by testing aztreonam against laboratory quality control strains in accordance with guidelines of the CLSI.

[1] = Escherichia coli, 25922, E. coli strain 25922, read-out: Ec 25922 (MIC)

Row | SMILES | MIC (E. coli containing KPC-2) | MIC (E. coli strain 25922; [1]) | MIC (E. coli strain 25922; Escherichia coli, 25922, read-out: Ec 25922 (MIC))
1 | CC(C)(O/N=C(\C(=O)N[C@@H]1C(=O)N(S(=O)(=O)O)[C@@H]1Cn1ncc(CC#N)n1)c1csc(N)n1)C(=O)O [Example 33, 2-(((Z)-(1-(2-aminothiazol-4-yl)-2-(((2R,3S)-2-((4-(cyanomethyl)-2H-1,2,3-triazol-2-yl)methyl)-4-oxo-1-sulfoazetidin-3-yl)amino)-2-oxoethylidene)amino)oxy)-2-methylpropanoic acid] | 2 µg/mL (≈ 3.69 µM) | 2 µg/mL (≈ 3.69 µM) | 
2 | CC(C)(O/N=C(\C(=O)N[C@@H]1C(=O)N(S(=O)(=O)O)[C@@H]1Cn1ccc(N)n1)c1csc(N)n1)C(=O)O [Example 34, 2-(((Z)-(2-(((2R,3S)-2-((3-amino-1H-pyrazol-1-yl)methyl)-4-oxo-1-sulfoazetidin-3-yl)amino)-1-(2-aminothiazol-4-yl)-2-oxoethylidene)amino)oxy)-2-methylpropanoic acid] | > 64 µg/mL | > 64 µg/mL | 
3 | CC(C)(O/N=C(\C(=O)N[C@@H]1C(=O)N(S(=O)(=O)O)[C@@H]1Cn1cc(N)cn1)c1csc(N)n1)C(=O)O [Example 35, 2-(((Z)-(2-(((2R,3S)-2-((4-amino-1H-pyrazol-1-yl)methyl)-4-oxo-1-sulfoazetidin-3-yl)amino)-1-(2-aminothiazol-4-yl)-2-oxoethylidene)amino)oxy)-2-methylpropanoic acid] | 1 µg/mL (≈ 1.94 µM) | 2 µg/mL (≈ 3.87 µM) | 
4 | CC(C)(O/N=C(\C(=O)N[C@@H]1C(=O)N(S(=O)(=O)O)[C@@H]1Cn1ncc(C[N+]2(C)CCCC2)n1)c1csc(N)n1)C(=O)O [Example 36, (2R,3S)-3-((Z)-2-(2-aminothiazol-4-yl)-2-(((2-carboxypropan-2-yl)oxy)imino)acetamido)-2-((4-((1-methylpyrrolidin-1-ium-1-yl)methyl)-2H-1,2,3-triazol-2-yl)methyl)-4-oxoazetidine-1-sulfonate] | 1 µg/mL | 2 µg/mL | 
5 | CC(C)(O/N=C(\C(=O)N[C@@H]1C(=O)N(S(=O)(=O)O)[C@@H]1Cn1ncc(COC(N)=O)n1)c1csc(N)n1)C(=O)O [Example 37, 2-(((Z)-(1-(2-aminothiazol-4-yl)-2-(((2R,3S)-2-((4-((carbamoyloxy)methyl)-2H-1,2,3-triazol-2-yl)methyl)-4-oxo-1-sulfoazetidin-3-yl)amino)-2-oxoethylidene)amino)oxy)-2-methylpropanoic acid] | 2 µg/mL (≈ 3.47 µM) | 2 µg/mL (≈ 3.47 µM) | 
6 | CC(C)(O/N=C(\C(=O)N[C@@H]1C(=O)N(S(=O)(=O)O)[C@@H]1Cn1ncc(COS(=O)(=O)O)n1)c1csc(N)n1)C(=O)O [Example 38, 2-(((Z)-(1-(2-aminothiazol-4-yl)-2-oxo-2-(((3S,4R)-2-oxo-1-sulfo-4-((4-((sulfooxy)methyl)-2H-1,2,3-triazol-2-yl)methyl)azetidin-3-yl)amino)ethylidene)amino)oxy)-2-methylpropanoic acid] | 4 µg/mL (≈ 6.53 µM) | 8 µg/mL (≈ 13.1 µM) | 
7 | CC(C)(O/N=C(\C(=O)N[C@@H]1C(=O)N(S(=O)(=O)O)[C@@H]1CN1CCN=C1N)c1csc(N)n1)C(=O)O [Example 39, 2-(((Z)-(2-(((2R,3S)-2-((2-amino-4,5-dihydro-1H-imidazol-1-yl)methyl)-4-oxo-1-sulfoazetidin-3-yl)amino)-1-(2-aminothiazol-4-yl)-2-oxoethylidene)amino)oxy)-2-methylpropanoic acid] | > 64 µg/mL | 64 µg/mL (≈ 123 µM) | 
8 | CC(C)(O/N=C(\C(=O)N[C@@H]1C(=O)N(S(=O)(=O)O)[C@@H]1CN1CCN/C1=N\C#N)c1csc(N)n1)C(=O)O [Example 40, 2-(((Z)-(1-(2-aminothiazol-4-yl)-2-(((2R,3S)-2-(((E)-2-(cyanoimino)imidazolidin-1-yl)methyl)-4-oxo-1-sulfoazetidin-3-yl)amino)-2-oxoethylidene)amino)oxy)-2-methylpropanoic acid] | 2 µg/mL (≈ 3.68 µM) | 2 µg/mL (≈ 3.68 µM) | 
9 | CC(C)(O/N=C(\C(=O)N[C@@H]1C(=O)N(S(=O)(=O)O)[C@@H]1Cn1cc(CCN)nn1)c1csc(N)n1)C(=O)O [Example 41, 2-(((Z)-(2-(((2R,3S)-2-((4-(2-aminoethyl)-1H-1,2,3-triazol-1-yl)methyl)-4-oxo-1-sulfoazetidin-3-yl)amino)-1-(2-aminothiazol-4-yl)-2-oxoethylidene)amino)oxy)-2-methylpropanoic acid] | 2 µg/mL (≈ 3.67 µM) | 1 µg/mL (≈ 1.83 µM) | 
10 | CC(C)(O/N=C(\C(=O)N[C@@H]1C(=O)N(S(=O)(=O)O)[C@@H]1Cn1cc(CCN2CCNCC2)nn1)c1csc(N)n1)C(=O)O [Example 42, 2-(((Z)-(1-(2-aminothiazol-4-yl)-2-oxo-2-(((3S,4R)-2-oxo-4-((4-(2-(piperazin-1-yl)ethyl)-1H-1,2,3-triazol-1-yl)methyl)-1-sulfoazetidin-3-yl)amino)ethylidene)amino)oxy)-2-methylpropanoic acid] | 2 µg/mL (≈ 3.25 µM) | 1.4 µg/mL (≈ 2.28 µM) | 
11 | CC(C)(O/N=C(\C(=O)N[C@@H]1C(=O)N(S(=O)(=O)O)[C@@H]1Cn1cc(CNC(=O)C[N+](C)(C)C)nn1)c1csc(N)n1)C(=O)O [Example 43, (3S,4R)-3-((Z)-2-(2-aminothiazol-4-yl)-2-(((2-carboxypropan-2-yl)oxy)imino)acetamido)-2-oxo-4-((4-((2-(trimethylammonio)acetamido)methyl)-1H-1,2,3-triazol-1-yl)methyl)azetidine-1-sulfonate] | 2 µg/mL | 2 µg/mL | 
12 | CC(C)(O/N=C(\C(=O)N[C@@H]1C(=O)N(S(=O)(=O)O)[C@@H]1Cn1cc(CN)nn1)c1csc(N)n1)C(=O)O [Example 44, 2-(((Z)-(2-(((2R,3S)-2-((4-(aminomethyl)-1H-1,2,3-triazol-1-yl)methyl)-4-oxo-1-sulfoazetidin-3-yl)amino)-1-(2-aminothiazol-4-yl)-2-oxoethylidene)amino)oxy)-2-methylpropanoic acid] | 1.5 µg/mL (≈ 2.82 µM) | 0.67 µg/mL (≈ 1.26 µM) | 
13 | CC(C)(O/N=C(\C(=O)N[C@@H]1C(=O)N(S(=O)(=O)O)[C@@H]1Cn1cc(CNC(=N)N)nn1)c1csc(N)n1)C(=O)O [Example 45, 2-(((Z)-(1-(2-aminothiazol-4-yl)-2-(((2R,3S)-2-((4-(guanidinomethyl)-1H-1,2,3-triazol-1-yl)methyl)-4-oxo-1-sulfoazetidin-3-yl)amino)-2-oxoethylidene)amino)oxy)-2-methylpropanoic acid] | 0.5 µg/mL (≈ 0.872 µM) |  | 0.5 µg/mL (≈ 0.872 µM)
14 | CC(C)(O/N=C(\C(=O)N[C@@H]1C(=O)N(S(=O)(=O)O)[C@@H]1Cn1cc(CO)nn1)c1csc(N)n1)C(=O)O [Example 47, 2-(((Z)-(1-(2-aminothiazol-4-yl)-2-(((2R,3S)-2-((4-(hydroxymethyl)-1H-1,2,3-triazol-1-yl)methyl)-4-oxo-1-sulfoazetidin-3-yl)amino)-2-oxoethylidene)amino)oxy)-2-methylpropanoic acid] | 5 µg/mL (≈ 9.39 µM) | 2 µg/mL (≈ 3.76 µM) | 
